Test results reported in US20210045385A1, “PYRIDAZINONE-SUBSTITUTED KETOXIMES AS HERBICIDES” (FMC Corporation, priority 2018, published 2021).

Key:
Assay type in all cases: in vivo
[1] = tested on: galium (catchweed bedstraw, Galium aparine); test: Test A postemergence, visual plant response rating; conditions: for Galium plant response rating: Postemergence, 125 g ai/ha, 0 to 100 scale (0 no effect, 100 complete control)
Outline: (§1)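 Greenhouse pot test in loam–sand soil mix: compound in a surfactant-containing non-phytotoxic solvent applied preemergence (directed soil spray) or postemergence (one- to two-leaf plants, 2–10 cm). Injury scored visually after ~10 days, 0–100.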

[2] = tested on: Italian ryegrass (Lolium multiflorum); test: Test A postemergence, visual plant response rating; conditions: for Ryegrass, Italian plant response rating: Postemergence, 125 g ai/ha, 0 to 100 scale (0 no effect, 100 complete control)
Outline: as §1

kochia (Kochia scoparia) [3] = test: Test A postemergence, visual plant response rating; conditions: for Kochia plant response rating: Postemergence, 125 g ai/ha, 0 to 100 scale (0 no effect, 100 complete control)
Outline: as §1

[4] = tested on: ragweed (common ragweed, Ambrosia elatior); test: Test A postemergence, visual plant response rating; conditions: for Ragweed plant response rating: Postemergence, 125 g ai/ha, 0 to 100 scale (0 no effect, 100 complete control)
Outline: as §1

[5] = tested on: pigweed (Amaranthus retroflexus); test: Test A postemergence, visual plant response rating; conditions: for Pigweed plant response rating: Postemergence, 125 g ai/ha, 0 to 100 scale (0 no effect, 100 complete control)
Outline: as §1

[6] = tested on: blackgrass (Alopecurus myosuroides); test: Test A postemergence, visual plant response rating; conditions: for Blackgrass plant response rating: Postemergence, 125 g ai/ha, 0 to 100 scale (0 no effect, 100 complete control)
Outline: as §1

[7] = tested on: barnyardgrass (Echinochloa crus-galli); test: Test A postemergence, visual plant response rating; conditions: for Barnyardgrass plant response rating: Postemergence, 125 g ai/ha, 0 to 100 scale (0 no effect, 100 complete control)
Outline: as §1

[8] = tested on: wheat (Triticum aestivum); test: Test A postemergence, visual plant response rating; conditions: for Wheat plant response rating: Postemergence, 125 g ai/ha, 0 to 100 scale (0 no effect, 100 complete control)
Outline: as §1

corn (Zea mays) = test: Test A postemergence, visual plant response rating; conditions: for Corn plant response rating: Postemergence, 125 g ai/ha, 0 to 100 scale (0 no effect, 100 complete control)
Outline: as §1

[9] = tested on: foxtail, giant (giant foxtail, Setaria faberii); test: Test A postemergence, visual plant response rating; conditions: for Foxtail, Giant plant response rating: Postemergence, 125 g ai/ha, 0 to 100 scale (0 no effect, 100 complete control)
Outline: as §1

[10] = tested on: Italian ryegrass (Lolium multiflorum); test: Test A preemergence, visual plant response rating; conditions: for Ryegrass, Italian plant response rating: preemergence, 0 to 100 scale, 0 no effect, 100 complete control; for Ryegrass, Italian plant response rating (0 to 100 scale): 500 g ai/ha Preemergence, approx. 10 days
Outline: as §1

kochia (Kochia scoparia) [11] = test: Test A preemergence, visual plant response rating; conditions: for Kochia plant response rating: preemergence, 0 to 100 scale, 0 no effect, 100 complete control; for Kochia plant response rating (0 to 100 scale): 500 g ai/ha Preemergence, approx. 10 days
Outline: as §1

[12] = tested on: ragweed (common ragweed, Ambrosia elatior); test: Test A preemergence, visual plant response rating; conditions: for Ragweed plant response rating: preemergence, 0 to 100 scale, 0 no effect, 100 complete control; for Ragweed plant response rating (0 to 100 scale): 500 g ai/ha Preemergence, approx. 10 days
Outline: as §1

[13] = tested on: pigweed (Amaranthus retroflexus); test: Test A preemergence, visual plant response rating; conditions: for Pigweed plant response rating: preemergence, 0 to 100 scale, 0 no effect, 100 complete control; for Pigweed plant response rating (0 to 100 scale): 500 g ai/ha Preemergence, approx. 10 days
Outline: as §1

[14] = tested on: barnyardgrass (Echinochloa crus-galli); test: Test A preemergence, visual plant response rating; conditions: for Barnyardgrass plant response rating: preemergence, 0 to 100 scale, 0 no effect, 100 complete control; for Barnyardgrass plant response rating (0 to 100 scale): 500 g ai/ha Preemergence, approx. 10 days
Outline: as §1

[15] = tested on: foxtail, giant (giant foxtail, Setaria faberii); test: Test A preemergence, visual plant response rating; conditions: for Foxtail, Giant plant response rating: preemergence, 0 to 100 scale, 0 no effect, 100 complete control; for Foxtail, Giant plant response rating (0 to 100 scale): 500 g ai/ha Preemergence, approx. 10 days
Outline: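 Compared with untreated controls, treated plants received a visual injury score on a 0–100 scale around 10 days after application. The compound, in a non-phytotoxic solvent with surfactant, was given as a preemergence soil spray or postemergence at the one- to two-leaf stage.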

[16] = tested on: ducksalad (Heteranhera limosa); test: Test B flooded paddy test, visual plant response rating; conditions: 250 g ai/ha, Flood, applied to paddy water, 2-leaf stage, evaluated after 13 to 15 days
Outline: (§2)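 Greenhouse paddy conditions applied: two-leaf plants, a 3 cm flood above the soil surface maintained throughout, and compound added to the water rather than the foliage. Plants were judged visually against controls at 13 to 15 days.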

rice (Oryza sativa) = test: as above; conditions: 250 g ai/ha, Flood, applied to paddy water, 2-leaf stage, evaluated after 13 to 15 days
Outline: as §2

[17] = tested on: sedge, umbrella (small-flower umbrella sedge, Cyperus difformis); test: as above; conditions: 250 g ai/ha, Flood, applied to paddy water, 2-leaf stage, evaluated after 13 to 15 days
Outline: as §2

[18] = tested on: barnyardgrass (Echinochloa crus-galli); test: as above; conditions: 250 g ai/ha, Flood, applied to paddy water, 2-leaf stage, evaluated after 13 to 15 days
Outline: as §2

[19] = 500 g ai/ha, postemergence, 0 is no effect, 100 is complete control
[20] = 1000 g ai/ha Postemergence, approx. 10 days

CCC(=O)Oc1c(C)nn(C)c(=O)c1C(=NOC)c1cccc2ccccc12 [Compound 49]
80: Galium plant response rating [1] | Ryegrass, Italian plant response rating (0 to 100 scale) [2, 19] | Ragweed plant response rating [4] | Pigweed plant response rating [5] | Foxtail, Giant plant response rating (0 to 100 scale) [9, 19] | Foxtail, Giant plant response rating (0 to 100 scale) [15]
0: Wheat plant response rating [8] | Corn plant response rating (corn (Zea mays)) | Plant response rating, Ducksalad (0 to 100 scale, 0 is no effect, 100 is complete control) [16] | Plant response rating, Rice (0 to 100 scale, 0 is no effect, 100 is complete control) (rice (Oryza sativa)) | Plant response rating, Sedge, Umbrella (0 to 100 scale, 0 is no effect, 100 is complete control) [17] | Plant response rating, Barnyardgrass (0 to 100 scale, 0 is no effect, 100 is complete control) [18]
10: Wheat plant response rating (0 to 100 scale) [8, 19]
20: Barnyardgrass plant response rating [7]
30: Barnyardgrass plant response rating ([14]; 125 g ai/ha)
100: Ragweed plant response rating ([12]; 125 g ai/ha) | Ragweed plant response rating (0 to 100 scale) [12] | Pigweed plant response rating (0 to 100 scale) [13]
40: Ryegrass, Italian plant response rating [2] | Foxtail, Giant plant response rating [9] | Ryegrass, Italian plant response rating ([10]; 125 g ai/ha)
90: Galium plant response rating (0 to 100 scale) [1, 19] | Kochia plant response rating (0 to 100 scale) (kochia (Kochia scoparia) [3]; [19]) | Ragweed plant response rating (0 to 100 scale) [4, 19] | Pigweed plant response rating (0 to 100 scale) [5, 19] | Blackgrass plant response rating (0 to 100 scale) [6, 19] | Pigweed plant response rating ([13]; 125 g ai/ha) | Barnyardgrass plant response rating (0 to 100 scale) [14]
50: Barnyardgrass plant response rating (0 to 100 scale) [7, 19] | Corn plant response rating (0 to 100 scale) (corn (Zea mays); [19]) | Kochia plant response rating (kochia (Kochia scoparia) [11]; 125 g ai/ha) | Foxtail, Giant plant response rating ([15]; 125 g ai/ha)
70: Kochia plant response rating (kochia (Kochia scoparia) [3]) | Blackgrass plant response rating [6] | Ryegrass, Italian plant response rating (0 to 100 scale) [10] | Kochia plant response rating (0 to 100 scale) (kochia (Kochia scoparia) [11])

Cc1cccc(/C(=N/OC(C)C)c2c(O)c(C)nn(C)c2=O)c1 [Compound 18]
30: Kochia plant response rating (0 to 100 scale) (kochia (Kochia scoparia) [3]; [20]) | Barnyardgrass plant response rating ([14]; 1000 g ai/ha)
10: Blackgrass plant response rating (0 to 100 scale) [6, 20] | Barnyardgrass plant response rating (0 to 100 scale) [7, 20]
40: Foxtail, Giant plant response rating (0 to 100 scale) [9, 20]
50: Kochia plant response rating (kochia (Kochia scoparia) [11]; 1000 g ai/ha)
100: Ragweed plant response rating (0 to 100 scale) [4, 20] | Pigweed plant response rating ([13]; 1000 g ai/ha)
20: Wheat plant response rating (0 to 100 scale) [8, 20] | Foxtail, Giant plant response rating ([15]; 1000 g ai/ha)
80: Ragweed plant response rating ([12]; 1000 g ai/ha)
90: Galium plant response rating (0 to 100 scale) [1, 20] | Pigweed plant response rating (0 to 100 scale) [5, 20]
0: Corn plant response rating (0 to 100 scale) (corn (Zea mays); [20]) | Plant response rating, Ducksalad (0 to 100 scale, 0 is no effect, 100 is complete control) [16] | Plant response rating, Rice (0 to 100 scale, 0 is no effect, 100 is complete control) (rice (Oryza sativa)) | Plant response rating, Sedge, Umbrella (0 to 100 scale, 0 is no effect, 100 is complete control) [17] | Plant response rating, Barnyardgrass (0 to 100 scale, 0 is no effect, 100 is complete control) [18]
60: Ryegrass, Italian plant response rating (0 to 100 scale) [2, 20] | Ryegrass, Italian plant response rating ([10]; 1000 g ai/ha)

CO/N=C(\c1ccccc1C#N)c1c(O)c(C)nn(C)c1=O [Compound 76]
0: Kochia plant response rating (0 to 100 scale) (kochia (Kochia scoparia) [3]; [19]) | Kochia plant response rating (kochia (Kochia scoparia) [3]) | Blackgrass plant response rating (0 to 100 scale) [6, 19] | Blackgrass plant response rating [6] | Wheat plant response rating (0 to 100 scale) [8, 19] | Wheat plant response rating [8] | Corn plant response rating (0 to 100 scale) (corn (Zea mays); [19]) | Corn plant response rating (corn (Zea mays)) | Foxtail, Giant plant response rating (0 to 100 scale) [9, 19] | Foxtail, Giant plant response rating [9] | Ryegrass, Italian plant response rating ([10]; 125 g ai/ha) | Ryegrass, Italian plant response rating (0 to 100 scale) [10] | Kochia plant response rating (kochia (Kochia scoparia) [11]; 125 g ai/ha) | Kochia plant response rating (0 to 100 scale) (kochia (Kochia scoparia) [11]) | Ragweed plant response rating ([12]; 125 g ai/ha) | Ragweed plant response rating (0 to 100 scale) [12] | Pigweed plant response rating ([13]; 125 g ai/ha) | Barnyardgrass plant response rating ([14]; 125 g ai/ha) | Barnyardgrass plant response rating (0 to 100 scale) [14] | Foxtail, Giant plant response rating ([15]; 125 g ai/ha) | Foxtail, Giant plant response rating (0 to 100 scale) [15] | Plant response rating, Ducksalad (0 to 100 scale, 0 is no effect, 100 is complete control) [16] | Plant response rating, Rice (0 to 100 scale, 0 is no effect, 100 is complete control) (rice (Oryza sativa)) | Plant response rating, Sedge, Umbrella (0 to 100 scale, 0 is no effect, 100 is complete control) [17] | Plant response rating, Barnyardgrass (0 to 100 scale, 0 is no effect, 100 is complete control) [18]
40: Galium plant response rating [1] | Pigweed plant response rating [5]
20: Ryegrass, Italian plant response rating [2] | Barnyardgrass plant response rating (0 to 100 scale) [7, 19] | Barnyardgrass plant response rating [7]
60: Ragweed plant response rating (0 to 100 scale) [4, 19]
70: Galium plant response rating (0 to 100 scale) [1, 19] | Pigweed plant response rating (0 to 100 scale) [5, 19]
10: Ragweed plant response rating [4] | Pigweed plant response rating (0 to 100 scale) [13]
30: Ryegrass, Italian plant response rating (0 to 100 scale) [2, 19]
